# Test results taken from article PMC9674596, “Origin of acetylcholine antagonism in ELIC, a bacterial pentameric ligand-gated ion channel” (Communications Biology, 2022).
# Assays:
# Format in all cases: cell-based, Erwinia chrysanthemi
# wild-type ELIC = biological target: T1, wild-type ELIC (Dickeya chrysanthemi, UniProt P0C7B7, INS163G); assay: Two-electrode voltage clamp, whole-cell currents of wild-type ELIC expressed in Xenopus laevis oocytes; conditions: for IC50: ACh IC50, WT ELIC
# T1 construct: expressed in transfected cells; host or cells: Xenopus laevis oocytes injected with cRNA from ELIC-pTLN
# Experimental: (§1) Stage V-VI Xenopus laevis oocytes were isolated[72] and deflocculated enzymatically in ND96 buffer without Ca^2+ (96 mM NaCl, 2 mM KCl, 1 mM MgCl2, 2 mM pyruvate, 5 mM HEPES, pH 7.4), but supplemented with 1 mg/mL collagenase B and 1 mg/mL trypsin inhibitor, for 2 h at room temperature under constant stirring. The deflocculation buffer was then gradually removed by washing the oocytes in ND96 buffer (96 mM NaCl, 2 mM KCl, 1 mM MgCl2, 1 mM CaCl2, 2 mM pyruvate, 5 mM HEPES, pH 7.4) for several iterations. The oocytes were then allowed to stir for an additional hour at room temperature under constant stirring with the buffer being periodically replaced until clear. To obtain optimal receptor expression, individually selected and healthy oocytes were injected with 0.2 ng cRNA for wild-type ELIC and 5 ng cRNA for mutants. Subsequently, oocytes were incubated for one day at 16 °C in ND96^+ buffer (96 mM NaCl, 2 mM KCl, 1 mM MgCl2, 1 mM CaCl2, 2 mM pyruvate, and 5 mM HEPES at pH 7.6). After expression, injected oocytes were placed in a RC-1Z oocyte chamber (Harvard Apparatus; Hamden, CT) containing buffer (pH 7.4) composed of 150 mM NaCl, 0.5 mM BaCl2, 10 mM HEPES, and 1 mM dithiothreitol or 1 µM atropine if cysteamine, or ACh, was used in the experiment, respectively. The presence of the reducing agent, dithiothreitol, ensures that the sulfhydryl group of cysteamine remains reduced.
# (§2) Once in the oocyte chamber, whole-cell currents were recorded using a two-electrode voltage-clamp apparatus (OC-725C oocyte clamp; Harvard Apparatus), with a buffer flow rate of 5–10 mL min^−1. Currents in response to various additions of cysteamine and/or ACh, were measured with the transmembrane voltage clamped at −60 mV. Dose response curves for each wild-type and mutant ELIC were acquired from at least five oocytes in two different batches. […]
# ELIC F133W = ELIC F133W (Dickeya chrysanthemi, UniProt P0C7B7, F133W); assay: cell-based
# Experimental: as §1, with “After expression, injected oocytes were placed in a RC-1Z oocyte chamber (Harvard Apparatus; Hamden, CT) containing buffer (pH 7.4) composed of 150 mM NaCl, 0.5 mM BaCl2, 10 mM HEPES, and 1 mM dithiothreitol or 1 µM atropine if cysteamine, or ACh, was used in the experiment, respectively. The presence of the reducing agent, dithiothreitol, ensures that the sulfhydryl group of cysteamine remains reduced.” left out
# as §2, with “mV.” for “mV. Dose response curves for each wild-type and mutant ELIC were acquired from at least five oocytes in two different batches.”
# ELIC A75D = biological target: T2, ELIC A75D (Dickeya chrysanthemi, UniProt P0C7B7, A75D/INS163G); assay: Two-electrode voltage clamp, A75D mutant ELIC expressed in Xenopus laevis oocytes
# T2 construct: expressed in transfected cells; host or cells: Xenopus laevis oocytes injected with cRNA from ELIC-pTLN
# ELIC Y38W = ELIC Y38W (Dickeya chrysanthemi, UniProt P0C7B7, Y38W); assay: Two-electrode voltage clamp, Y38W mutant ELIC expressed in Xenopus laevis oocytes
# Experimental: as §1, with “After expression, injected oocytes were placed in a RC-1Z oocyte chamber (Harvard Apparatus; Hamden, CT) containing buffer (pH 7.4) composed of 150 mM NaCl, 0.5 mM BaCl2, 10 mM HEPES, and 1 mM dithiothreitol or 1 µM atropine if cysteamine, or ACh, was used in the experiment, respectively. The presence of the reducing agent, dithiothreitol, ensures that the sulfhydryl group of cysteamine remains reduced.” left out
# as §2, with “mV.” for “mV. Dose response curves for each wild-type and mutant ELIC were acquired from at least five oocytes in two different batches.”
structure (smiles),measurement,setting,value
"NCCCC(=O)O [GABA, γ-aminobutyric acid]",EC50,wild-type ELIC,2700 ± 300 µM
"CC(=O)OCC[N+](C)(C)C [ACh, acetylcholine]",IC50,ELIC F133W,8000 ± 2000 µM
same,IC50,ELIC A75D,7000 ± 2000 µM
same,IC50,"wild-type ELIC; inhibition of GABA-activated current, GABA at its EC50 (2.7 mM)",1100 ± 200 µM
same,IC50,"wild-type ELIC; inhibition of cysteamine-activated current, cysteamine at its EC50 (0.6 mM)",1000 ± 200 µM
same,IC50,ELIC Y38W,400 ± 100 µM
